PubChem BioAssay (NCI)
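Five compound concentrations were applied to cells in 96-well plates for 48 hours; endpoints were derived by simple linear interpolation of the resulting dose-response curve. GI50 = concentration required for 50% inhibition of growth. TGI is the concentration that stops growth completely.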

Assays:
Experiment in all cases: DTP human tumour cell line panel, 48 h
[1] = system: 786-0 renal
[2] = system: HCC-2998 colon
[3] = system: HOP-92 NSCLC
[4] = system: SK-OV-3 ovarian
[5] = system: SNB-19 CNS
[6] = system: UACC-257 melanoma
[7] = system: SNB-75 CNS
[8] = system: KM12 colon
[9] = system: NCI-H23 lung
[10] = system: MCF7 breast
[11] = system: BT-549 breast
[12] = system: HS 578T breast

C[N+]1(C)C/C(=C\c2ccc(O)cc2)C(=O)/C(=C/c2ccc(O)cc2)C1
TGI [1]: > 100 µM
TGI [2]: > 100 µM
TGI [3]: > 100 µM
TGI [4]: > 100 µM
TGI [5]: > 100 µM
TGI [6]: > 100 µM
TGI [7]: > 100 µM
TGI [8]: > 100 µM

NC(=S)N/N=C1\CC(c2ccccc2)Nc2ccccc21 (centres undefined)
TGI [3]: 57.5 µM
TGI [4]: > 100 µM
TGI [9]: > 100 µM
TGI [5]: > 100 µM
TGI [7]: 49.1 µM

CCCCCCCCc1ccc(CCC(N)(CO)CO)cc1
GI50 [2]: 1.57 µM
TGI [2]: 2.96 µM
GI50 [3]: 1.39 µM
TGI [3]: 3.53 µM
GI50 [4]: 1.61 µM
TGI [4]: 3.09 µM
GI50 [10]: 1.67 µM
TGI [10]: 3.07 µM
GI50 [6]: 2.23 µM
TGI [6]: 5.01 µM
GI50 [7]: 2.13 µM
TGI [7]: 4.2 µM
GI50 [8]: 1.93 µM
TGI [8]: 3.44 µM

COc1cc(O)c2c(=O)c(OC)c(-c3ccc(OC)c(OC)c3)oc2c1.[Zn+2]
TGI [1]: > 100 µM
GI50 [2]: 43.1 µM
TGI [2]: > 100 µM
TGI [11]: > 100 µM
TGI [4]: 47.2 µM
GI50 [5]: 4.31 µM
TGI [5]: > 100 µM
GI50 [10]: 92.3 µM
TGI [10]: > 100 µM
TGI [12]: 9.49 µM
TGI [7]: 8.79 µM

CCOc1ccc(N=Nc2ccc(-c3ccc(N=Nc4c(O)ccc5cc(S(=O)(=O)O)cc(S(=O)(=O)O)c45)cc3)cc2)cc1
TGI [1]: > 100 µM
TGI [2]: > 100 µM
TGI [3]: > 100 µM
TGI [11]: > 100 µM
TGI [4]: > 100 µM
TGI [9]: > 100 µM
TGI [5]: > 100 µM
TGI [10]: > 100 µM
TGI [12]: > 100 µM
TGI [6]: > 100 µM
TGI [8]: > 100 µM

CC(=O)Oc1cc(/C=C/c2ccc(O)cc2)cc(OC(C)=O)c1
TGI [1]: > 100 µM
TGI [3]: > 100 µM
TGI [4]: > 100 µM
TGI [9]: 53.9 µM
TGI [5]: > 100 µM
TGI [10]: > 100 µM
TGI [12]: > 100 µM
TGI [6]: > 100 µM
TGI [7]: > 100 µM
TGI [8]: > 100 µM

CC(=O)c1c(C)cc2cccc(OC3OC(CO)C(O)C(O)C3O)c2c1O (centres undefined) (tested in a mixture with another compound)
TGI [1]: > 100 µM
TGI [2]: > 100 µM
TGI [3]: > 100 µM
TGI [11]: > 100 µM
TGI [4]: > 100 µM
TGI [9]: > 100 µM
TGI [5]: > 100 µM
TGI [10]: > 100 µM
TGI [12]: > 100 µM
TGI [6]: > 100 µM
TGI [7]: > 100 µM
TGI [8]: > 100 µM

O=S(=O)([O-])[O-].[Fe+2].[OH2+]c1c(Cl)cc(Cl)cc1/C=N/Nc1ccccn1
TGI [1]: 1.92 µM
TGI [2]: 5.13 µM
TGI [3]: 0.899 µM
GI50 [4]: 1.86 µM
TGI [4]: 3.7 µM
TGI [9]: 2.64 µM
TGI [5]: 3.64 µM
TGI [6]: 2.63 µM
TGI [7]: 1.64 µM
TGI [8]: 2.75 µM

Cc1cccc(/C=C2/C(=O)Nc3ccccc32)n1
TGI [1]: 27.3 µM
TGI [2]: 22.4 µM
TGI [3]: 31.3 µM
TGI [11]: 68.6 µM
TGI [4]: 52 µM
TGI [9]: 28.9 µM
TGI [5]: > 58.9 µM
TGI [10]: 30.3 µM
TGI [12]: > 80.1 µM
TGI [6]: 30.1 µM
TGI [7]: > 100 µM
TGI [8]: 35.4 µM

Cc1ncc(COP(=O)(O)O)c(C)c1O
TGI [1]: > 100 µM
TGI [3]: > 100 µM
TGI [11]: > 100 µM
TGI [9]: > 100 µM
TGI [5]: > 100 µM
TGI [12]: > 100 µM
TGI [6]: > 100 µM
TGI [8]: > 100 µM

Nc1ccc(S(=O)(=O)NCCS(=O)(=O)O)cc1
TGI [1]: > 100 µM
TGI [3]: > 100 µM
TGI [11]: > 100 µM
TGI [9]: > 100 µM
TGI [5]: > 100 µM
TGI [12]: > 100 µM
TGI [6]: > 100 µM
TGI [7]: > 100 µM
TGI [8]: > 100 µM

N=C(N)SCCN1CCCCC1
TGI [1]: 51.5 µM
TGI [3]: > 100 µM
TGI [11]: 64.9 µM
TGI [4]: > 100 µM
TGI [9]: > 100 µM
TGI [10]: 34.3 µM
TGI [12]: 58.2 µM
TGI [6]: 41.6 µM
TGI [7]: 94.1 µM
TGI [8]: > 100 µM

C[N+]1(c2ccccc2)C=C(c2ccccc2)SC1=S (centres undefined)
TGI [1]: > 100 µM
TGI [2]: > 100 µM
TGI [11]: > 100 µM
TGI [9]: > 100 µM
TGI [5]: > 100 µM
TGI [10]: > 100 µM
TGI [12]: > 100 µM
TGI [6]: > 100 µM
TGI [8]: > 100 µM
